Reference: US3962282A, “Juvenile hormone mimics” (priority 1974, dated 1976)

Assays:
milkweed bug = assay: topical application to milkweed bug, fourth nymphal stage, maturation inhibition; assay type: in vivo; conditions: rating scale 0-3
Outline: (§1)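 Compounds applied topically, 1 μL acetone solution at 10%, 1% or 0.5%, to ten specimens per insect per concentration, alongside acetone and untreated controls; scored after about 8–10 days. Juvenile/adult characteristics rated 0–3 (Tenebrio 0–4), ≥2 meaning unable to reproduce; unreported specimens died during metamorphosis.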

German cockroach nymphs = assay: topical application to 50-day-old German cockroach nymphs; assay type: in vivo, Blattella germanica
Excerpt: In another test, the nonadiene was applied topically to 50-day-old German cockroach nymphs. The compound was applied in acetone as a […], or 0.5 percent solution. Acetone controls and nontreated controls were also run. The roaches were then maintained in the laboratory until the controls reproduced. […] The 1 percent and 0.5 percent treatments did reproduce.

Mexican bean beetle = assay: topical application to Mexican bean beetle, fourth larval stage, maturation inhibition; assay type: in vivo; conditions: rating scale 0-3
Outline: as §1

[1] = test system: Aedes aegypti mosquito larvae; assay: mosquito larvae in aqueous solutions, adult emergence; assay type: in vivo; conditions: for number of adults, Jar 1 Dead / number of adults, Jar 1 Living / number of adults, Jar 2 Dead / number of adults, Jar 2 Living: 13 days
Description: Two compounds, 7,8-epoxy-4-ethyl-8-methyl-1-(3,4-methylenedioxyphenyl)-3-decene and 2,6-diemthyl-9-(3,4-methylenedioxyphenyl)-2,6-nonadiene, were tested against Aedes aegypti mosquito larvae in aqueous solutions at concentrations of 10, 5, 2.5. 1.25 and 0.625 ppm. each. Ninety milliliters of each solution were placed in a pint jar and 30 five-day-old mosquito larvae were added to each jar. Two tests were run at each concentration and control tests employing only solvent with no compound were also run. Food was added to each jar, the jars were covered with cloths, and maintained at 29°C. until adults emerged in the control jars. The number of adults in the test jars was determined.

[2] = test system: Housefly (Musca domestica); assay: housefly rearing diet test, percent adult emergence; assay type: in vivo
Description: Test compounds were mixed with the rearing diet of houseflys at various levels. The prepared diet was then placed in an 8 oz. drinking cup. Three cups were prepared for each treatment level and three control cups. Housefly eggs (Musca domestica) were placed in each cup and they were maintained at 28°C. for 1 week. Fifty pupae were then removed from each cup and placed in a petri dish. After the control pupae had emerged into adults, the percent emergence in each dish was recorded. The test compounds used were 7,8-epoxy-4-ethyl-8-methyl-1-(3,4-methylenedioxyphenyl)-3-decene, 4,8-dimetyl-1-(3,4-methylenedioxyphenyl)-2,6-nonadiene and 2,6-dichloro-2,6-dimethyl-9-(3,4-methylenedioxyphenyl)nonane.

[3] = test system: Mexican bean beetle larvae; assay: fumigant and residual activity in jars on Mexican bean beetle larvae; assay type: in vivo
Description: Fumigant and residual activity of 2,6-dimethyl-9-(3,4-methylenedioxyphenyl)-2,6-nonadiene was determined in the following manner. One milliliter of a 1 percent, a 0.1 percent or a 0.01 percent solution of the test compound was placed in the bottom of a one pint jar. A control was prepared using just acetone. The acetone was allowed to evaporate and 10 Mexican bean beetle larvae were placed on a screen 5 inches from the bottom. The jar was closed for one week at which time the controls emerge as adults and the treated ones are rated as described above. The larvae are replaced weekly.

For `CC(C)=CCCC(C)=CCCc1ccc2c(c1)OCO2` [2,6-dimethyl-9-(3,4-methylenedioxyphenyl)-2,6-nonadiene], the “number of specimens in rating 3” value (milkweed bug; 0.5%) was 10 specimens, the “number of specimens in rating 3” value (milkweed bug; 1%) was 10 specimens and the “number of specimens in rating 3” value (milkweed bug; 10%) was 5 specimens. For the same molecule, the reproduction (German cockroach nymphs; 0.5 percent) was “did reproduce”, the reproduction (German cockroach nymphs; 1 percent) was “did reproduce” and the reproduction (German cockroach nymphs; 10 percent solution) was “did not reproduce”. For the same molecule, the wing formation (German cockroach nymphs; 10 percent solution) was “normal wing formation”, the “number of specimens in rating 3” value (Mexican bean beetle; 0.5%) was 9 specimens and the “number of specimens in rating 3” value (Mexican bean beetle; 1%) was 10 specimens. For the same molecule, the “number of specimens in rating 3” value (Mexican bean beetle; 10%) was 1 specimens, the “number of adults, Jar 1 Dead” value ([1]; 0.625 ppm) was 21 and the “number of adults, Jar 1 Living” value ([1]; 0.625 ppm) was 1. The “number of adults, Jar 2 Dead” value ([1]; 0.625 ppm) was 21, the “number of adults, Jar 2 Living” value ([1]; 0.625 ppm) was 0 and the “number of adults, Jar 1 Dead” value ([1]; 1.25 ppm) was 1. The “number of adults, Jar 1 Living” value ([1]; 1.25 ppm) was 3, the “number of adults, Jar 2 Dead” value ([1]; 1.25 ppm) was 10 and the “number of adults, Jar 2 Living” value ([1]; 1.25 ppm) was 1. For the same molecule, the “number of adults, Jar 1 Dead” value ([1]; 2.5 ppm) was 0, the “number of adults, Jar 1 Living” value ([1]; 2.5 ppm) was 0 and the “number of adults, Jar 2 Dead” value ([1]; 2.5 ppm) was 1. For the same molecule, the “number of adults, Jar 2 Living” value ([1]; 2.5 ppm) was 0, the “number of adults, Jar 1 Dead” value ([1]; 5 ppm) was 0 and the “number of adults, Jar 1 Living” value ([1]; 5 ppm) was 0. For the same molecule, the “number of adults, Jar 2 Dead” value ([1]; 5 ppm) was 0, the “number of adults, Jar 2 Living” value ([1]; 5 ppm) was 0 and the “number of adults, Jar 1 Dead” value ([1]; 10 ppm) was 0. For the same molecule, the “number of adults, Jar 1 Living” value ([1]; 10 ppm) was 0, the “number of adults, Jar 2 Dead” value ([1]; 10 ppm) was 0 and the “number of adults, Jar 2 Living” value ([1]; 10 ppm) was 0. For the same molecule, the control ([1]; at concentrations as low as 2.5 ppm) was 100%, the “live adults in the jars” value ([1]; nonadiene at 10, 5, and 2.5 ppm, decene at any concentration) was “never any live adults” and the “percent adult emergence, Cup 1” value ([2]; 100 ppm in diet) was 90%. The “percent adult emergence, Cup 2” value ([2]; 100 ppm in diet) was 30%, the “percent adult emergence, Cup 3” value ([2]; 100 ppm in diet) was 10% and the control ([2]; 500 ppm) was 100%. The “percent adult emergence, Cup 1” value ([2]; 500 ppm in diet) was 0%, the “percent adult emergence, Cup 2” value ([2]; 500 ppm in diet) was 0% and the “percent adult emergence, Cup 3” value ([2]; 500 ppm in diet) was 0%. The “number in rating 0” value ([3]; Fifteenth Week, 0.01%) was 10, the “number in rating 0” value ([3]; Fifteenth Week, 0.1%) was 10 and the “number in rating 3” value ([3]; Fifteenth Week, 1%) was 10. For the same molecule, the “number in rating 0” value ([3]; Fifth Week, 0.01%) was 10, the “number in rating 3” value ([3]; Fifth Week, 0.1%) was 10 and the “number in rating 3” value ([3]; Fifth Week, 1%) was 10. For the same molecule, the “number in rating 0” value ([3]; First Week, 0.01% (0.1 mg.)) was 5, the “number in rating 2” value ([3]; First Week, 0.01% (0.1 mg.)) was 1 and the “number in rating 3” value ([3]; First Week, 0.01% (0.1 mg.)) was 4. The “number in rating 3” value ([3]; First Week, 0.1% (1 mg.)) was 10, the “number in rating 2” value ([3]; First Week, 1% (10 mg.)) was 1 and the “number in rating 3” value ([3]; First Week, 1% (10 mg.)) was 9. The “number in rating 0” value ([3]; Second Week, 0.01%) was 4, the “number in rating 2” value ([3]; Second Week, 0.01%) was 2 and the “number in rating 3” value ([3]; Second Week, 0.01%) was 4. The “number in rating 3” value ([3]; Second Week, 0.1%) was 10, the “number in rating 0” value ([3]; Second Week, 1%) was 1 and the “number in rating 3” value ([3]; Second Week, 1%) was 10. For the same molecule, the “number in rating 0” value ([3]; Tenth Week, 0.01%) was 10, the “number in rating 0” value ([3]; Tenth Week, 0.1%) was 5 and the “number in rating 1” value ([3]; Tenth Week, 0.1%) was 2. For the same molecule, the “number in rating 2” value ([3]; Tenth Week, 0.1%) was 1, the “number in rating 3” value ([3]; Tenth Week, 0.1%) was 2 and the “number in rating 3” value ([3]; Tenth Week, 1%) was 10. The “number in rating 3” value ([3]; Twenty-second Week, 1%) was 10.
